Measurements from patent US20120270929A1, “MODULATION OF TTC39 EXPRESSION TO INCREASE HDL” (ISIS Pharmaceuticals, Inc., priority 2009, published 2012).
Oligonucleotides are written 5' to 3', each unit as a sugar letter and its base; * is a phosphorothioate linkage, no mark a phosphodiester; rarer units and linkages stand in square brackets, end groups in braces. Plain capitals give the bases only. e = 2'-O-(2-methoxyethyl) (MOE); [5mC] = 5-methylcytosine; d = 2'-deoxy (DNA)

Assays:
murine TTC39B mRNA [1] = test: Antisense inhibition of murine TTC39B in mouse primary hepatocytes, single dose; type: cell-based; conditions: 100 nM, cytofectin, ~24 h, vs untreated control; gapmers targeted to SEQ ID NO: 6
Method in brief: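 Mouse primary hepatocytes transfected by cytofectin with 100 nM 5-10-5 MOE gapmer (20-mer, phosphorothioate, 5-methylcytosine) for ~24 h. TTC39B mRNA quantified by real-time qPCR, normalized to RIBOGREEN total RNA. Values given as percent inhibition versus untreated cells.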

murine TTC39B mRNA [2] = test: In vivo antisense inhibition of murine TTC39B mRNA in liver of C57BL/6 mice; parameters: species or system mouse; conditions: 50 mg/kg/week, 6 weeks, relative to PBS control
Protocol: Four groups of five mice each were injected twice a week with 25 mg/kg (totaling 50 mg/kg/week) of ISIS 447114, ISIS 447118, ISIS 447143, or ISIS 447144 for 6 weeks. A control group of five mice was injected with phosphate buffered saline (PBS) twice a week for 6 weeks. Plasma samples were obtained before the start of treatment, at week 3 and at week 6. At the end of the treatment period, mice were fasted for 4 hours before being euthanized. Plasma and tissue samples were obtained for further analysis.
RNA was extracted from liver tissue for real-time PCR analysis of TTC39B using murine primer probe set mTtc39b_LTS00287. […] Results are presented as an average of the percent inhibition of TTC39B, relative to control.

murine TTC39B mRNA [3] = test: Dose-dependent antisense inhibition of murine TTC39B in mouse primary hepatocytes (Example 2); type: cell-based; conditions: cytofectin, ~16 h
Protocol: Cells were plated at a density of 10,000 cells per well and transfected using cytofectin reagent with 25 nM, 50 nM, 100 nM, and 200 nM concentrations of antisense oligonucleotide, as specified in Table 3. After a treatment period of approximately 16 hours, RNA was isolated from the cells and TTC39B mRNA levels were measured by quantitative real-time PCR. Murine primer probe set mTtc39b_LTS00287 (forward sequence: […], incorporated herein as SEQ ID NO: 94; reverse sequence: […], incorporated herein as SEQ ID NO: 95; probe sequence: […], incorporated herein as SEQ ID NO: 96) was used to measure mRNA levels. TTC39B mRNA levels were adjusted according to total RNA content, as measured by RIBOGREEN®. Results are presented as percent inhibition of TTC39B, relative to untreated control cells.

murine TTC39B mRNA [4] = test: Dose-dependent antisense inhibition of murine TTC39B in mouse primary hepatocytes (Example 3); type: cell-based; conditions: cytofectin, ~16 h
Protocol: Cells were plated at a density of 10,000 cells per well and transfected using cytofectin reagent with 6.25 nM, 12.5 nM, 25 nM, 50 nM, 100 nM, and 200 nM concentrations of antisense oligonucleotide, as specified in Table 4. After a treatment period of approximately 16 hours, RNA was isolated from the cells and TTC39B mRNA levels were measured by quantitative real-time PCR. Murine primer probe set mTtc39b_LTS00287 was used to measure mRNA levels. TTC39B mRNA levels were adjusted according to total RNA content, as measured by RIBOGREEN®. Results are presented as percent inhibition of TTC39B, relative to untreated control cells.

[5] = tested on: Low density lipoprotein receptor (Ldlr) mRNA; test: PCR microarray analysis of liver, LDLr-/- mice: Ldlr; type: in vivo, mouse; conditions: 6 weeks
Protocol: (§1) Four groups of five male mice each were injected with a total of 1.5, 5, 15, or 50 mg/kg/week of ISIS 447118 for 6 weeks. A group of five mice was injected with a total of 50 mg/kg/week of control oligonucleotide ISIS 141923 ([…], designated herein as SEQ ID NO: 112, which has no known murine target) for 6 weeks. A control group of five mice was injected with phosphate buffered saline (PBS) twice a week for 6 weeks. Plasma samples were obtained before the start of treatment, at week 3 and at week 6. At the end of the treatment period, the mice were euthanized. Plasma and tissue samples were obtained for further analysis.
(§2) Liver samples from the mice groups were analyzed using a commercial kit for PCR microarray analysis (SA Biosciences Corp., MD), according to the manufacturer's instructions. Genes involved in lipoprotein and cholesterol metabolism were compared with the PBS control.

Stabilin 1 (Stab1) mRNA = test: PCR microarray analysis of liver, LDLr-/- mice: Stab1; type: in vivo, mouse; conditions: 6 weeks
Protocol: as §1, §2

Sequence	% inhibition of murine TTC39B mRNA (murine TTC39B mRNA [1])	% inhibition of TTC39B mRNA in liver (murine TTC39B mRNA [2])	percent inhibition of TTC39B mRNA (murine TTC39B mRNA [3]; 25 nM)	percent inhibition of TTC39B mRNA (murine TTC39B mRNA [3]; 50 nM)	percent inhibition of TTC39B mRNA (murine TTC39B mRNA [3]; 100 nM)	percent inhibition of TTC39B mRNA (murine TTC39B mRNA [3]; 200 nM)	percent inhibition of TTC39B mRNA (murine TTC39B mRNA [4]; 6.25 nM)	percent inhibition of TTC39B mRNA (murine TTC39B mRNA [4]; 12.5 nM)	percent inhibition of TTC39B mRNA (murine TTC39B mRNA [4]; 25.0 nM)	percent inhibition of TTC39B mRNA (murine TTC39B mRNA [4]; 50.0 nM)	percent inhibition of TTC39B mRNA (murine TTC39B mRNA [4]; 100.0 nM)	percent inhibition of TTC39B mRNA (murine TTC39B mRNA [4]; 200.0 nM)	Ldlr fold increase/decrease relative to PBS group ([5]; 1.5 mg/kg)	Ldlr fold increase/decrease relative to PBS group ([5]; 5 mg/kg)	Ldlr fold increase/decrease relative to PBS group ([5]; 15 mg/kg)	Ldlr fold increase/decrease relative to PBS group ([5]; 50 mg/kg)	Stab1 fold increase/decrease relative to PBS group (Stabilin 1 (Stab1) mRNA; 1.5 mg/kg)	Stab1 fold increase/decrease relative to PBS group (Stabilin 1 (Stab1) mRNA; 5 mg/kg)	Stab1 fold increase/decrease relative to PBS group (Stabilin 1 (Stab1) mRNA; 15 mg/kg)	Stab1 fold increase/decrease relative to PBS group (Stabilin 1 (Stab1) mRNA; 50 mg/kg)
CGGATGATTCTTGCTGGTAA (antisense e[5mC]*eG*eG*eA*eT*dG*dA*dT*dT*d[5mC]*dT*dT*dG*d[5mC]*dT*eG*eG*eT*eA*eA) [ISIS 447114]	73%	49%	42%	70%	85%	92%	6%	5%	34%	71%	90%	93%								
GCAGCTCGATTCGGGCATGA (antisense eG*e[5mC]*eA*eG*e[5mC]*dT*d[5mC]*dG*dA*dT*dT*d[5mC]*dG*dG*dG*e[5mC]*eA*eT*eG*eA) [ISIS 447118]	76%	73%	49%	65%	74%	82%	0%	24%	45%	66%	77%	81%	1.43 fold	1.28 fold	1.79 fold	2.87 fold	1.15 fold	1.19 fold	1.35 fold	1.53 fold
GCCACCAGTGCCTGCTGAGC (antisense eG*e[5mC]*e[5mC]*eA*e[5mC]*d[5mC]*dA*dG*dT*dG*d[5mC]*d[5mC]*dT*dG*d[5mC]*eT*eG*eA*eG*e[5mC]) [ISIS 447143]	74%	85%	36%	71%	79%	91%	7%	25%	44%	72%	88%	94%								
TATTTCTATAGCTCATGACA (antisense eT*eA*eT*eT*eT*d[5mC]*dT*dA*dT*dA*dG*d[5mC]*dT*d[5mC]*dA*eT*eG*eA*e[5mC]*eA) [ISIS 447144]	69%	70%	37%	69%	74%	84%														
